One data set concerns zebrafish embryos. The data set can be described thus: Melanin inhibitory assay in zebrafish embryos. The class given is in vivo. As to conditions: PTU 0.0015%, vs control. How it is done: To perform the test of acute toxicity, a total of 20 fertilized zebrafish embryos were collected at around 4 h after fertilization and added to each well in a 12-well plate. These embryos then underwent treatment using different quantities of […] (2, 4, 6, 8, and 10 µM), while the negative control was distilled water and the positive control was 3,4-dichloroaniline. Incubation of the plate then took place until 48 h after fertilization at a temperature of 28.5 ± 1 °C. The test solutions were refreshed at 24 h after fertilization to allow the counting and removal of any dead embryos. Following exposure, a stereomicroscope (SZX16, Olympus, Japan) was used to record the embryo morphological effects. Meanwhile, a slightly modified version of a previously described melanin inhibitory assay was carried out[30]. The embryos were then homogenized using a cold lysis buffer (PBS pH 7.4, 1% Triton-X and 1% DMSF). The lysate then underwent 10 min of sonication before being placed in a centrifuge for 5 min at 10,000×g. The pellet was then removed from the centrifuge and dissolved in 200 µL of 1 N NaOH for 1 h at a temperature of 85 °C. This sample was subsequently vortexed and placed in the centrifuge for a further 5 min at 10,000×g. A microplate reader (Spectramax M5, Molecular Devices, USA) was then employed to determine the supernatant absorbance at 490 nm. Melanin content levels could then by calibrated by using the protein amount, and were reported in the form of a percentage compared to the untreated control. In the melanin inhibitory assay, the positive control used was phenylthiourea (PTU) solution (0.0015%).

The subject of another data set is B16F10 melanoma cells. Briefly: Melanin content assay in B16F10 cells. Format: cell-based, mouse. As to conditions: arbutin 0.2 mM, 48 h, 405 nm. As to the method:
In order to assess melanin content, culture flasks were used to grow B16F10 cells (1 × 10^5 cells/flask) for 24 h. […] Cell harvesting was conducted by trypsinization and the cells were then rinsed twice in cold PBS. The cell pellets were then dissolved in 0.3 mL of 1 N NaOH to produce solutions which were heated to 90 °C for a one-hour period. The lysates were then placed in a centrifuge for 10 min at 3,000 × g whereupon a microplate reader was used to assess the melanin quantity at 405 nm. The protein content in the supernatant was evaluated using the Bradford protein assay with the findings presented in the form of a percentage of the control. Arbutin (0.2 mM) served as the positive control. Each trial was carried out in triplicate, with results presented in the form of mean ± standard deviation.

The next data set concerns skin. The note with it: treatment of hyperpigmentation; cited from earlier work. An excerpt: In producing cosmetic products and functional foods, safety is of the highest priority during the formulation process.
The next data set has as its system mushroom TYR. Further details: method as in PMID 19440221. The note with it: cited from earlier work. An excerpt:
Abu Ubeid et al.[51]. conducted the screening of an internal library to identify the active oligopeptides capable of inhibiting TYR in mushrooms.

For the next data set, the system named is cells. As to conditions: cited from earlier work. An excerpt: (§1) One role of TYR, which is a binuclear copper enzyme, is to regulate melanogenesis. It acts as a catalyst for the hydroxylation of tyrosine and the oxidation of 3, 4-dihydroxyphenylalanine (L-DOPA) to o-dopaquinone which are the rate limiting reactions which occur during the synthesis of melanin. Skin color is dependent upon the level of melanin synthesis as well as the type of melanin and the way it is distributed through the keratinocytes. Achieving effective inhibition of TYR with minimal adverse side effects has remained a longstanding challenge within the realms of dermatological and cosme ...

The conditions of data set [1]: presence of water or oxygen; cited from earlier work.
From the text: as §1

A further data set deals with TYR. The note with it: cited from earlier work. An excerpt:
TIPs are now widely prepared via enzymatic hydrolysis, due to the ease of controlling the process and the absence of extreme reaction conditions. There are many commercially produced enzymes which are available to support TIP production, among which are trypsin, chymotrypsin, flavourzyme, alkaline protease, neutral protease, papain, and so forth. It is understood that different enzymes can differ in their hydrolytic impact upon a given material because the binding specificity between substrate and enzymes will vary. […] Further fractionation of the MW < 0.65 kDa ultrafiltrated fraction can be carried out by SEC using a Superdex 30 Increase column with a separation range of 100-7,000 Da. […] Where hydrophobic amino acids appear at each end of the peptide chain, this increases the interactivity with the copper active sites of TYR. Furthermore, it was reported by Wang et al.[33]. that a low-molecular-weight (700-1,700 Da) gelatin hydrolysate derived from the sea cucumber wall offered 55.7% hydrophobic amino acids. While the exterior environme ... || (+ 2 further places)

For another data set, the system named is A375 melanoma cells. As to conditions: 0.5-1 mM; cited from earlier work.
The next data set deals with TYR (di-phenolase). The note with it: cited from earlier work. An excerpt:
In order to check our own hypothesis concerning the ability of the peptide VY-9 to inhibit TYR, we created a synthetic peptide with a matching sequence to test the inhibition in the case of both mono-phenolase and di-phenolase forms. […] The plots can be seen in Fig. 3a-d, where four lines of differing gradients meet at the same intersection point for the vertical coordinate at varying concentrations of the VY-9 peptide.

A further data set has as its system TYR (mono-phenolase). As to conditions: cited from earlier work. An excerpt:
In order to check our own hypothesis concerning the ability of the peptide VY-9 to inhibit TYR, we created a synthetic peptide with a matching sequence to test the inhibition in the case of both mono-phenolase and di-phenolase forms. […] Ge et al.[34]. noting that hydrophobic interactions with hydrophobic side chains located at the active sites of TYR could be increased by inhibitors which have aromatic ring structures. […] For instance, Schurink et al.[38]. performed the screening of seven different peptides offering TYR inhibition from protein ... || In order to understand the VY-9 peptide mechanism for TYR inhibition, the inhibition mode was investigated through the analysis of Lineweaver-Burk plots. The plots can be seen in Fig. 3a-d, where four lines of differing gradients meet at the same intersection point for the vertical coordinate at varying concentrations of the VY-9 peptide.

The test system of the next data set is melanoma cells. The note with it: 500 µM; cited from earlier work.
The test system of a further data set is human TYR. Further details: method as in PMID 19440221. The note with it: cited from earlier work.
A further data set concerns human melanocytes. Further details: method as in PMID 19440221. The note with it: 100 µM, seven days; cited from earlier work.

As for `NC(=S)Nc1ccccc1` [PTU, phenylthiourea, reference compound], the melanin content entry in the data set on zebrafish embryos is “differed significantly (p < 0.01) to the control”. Turning to `OC[C@H]1O[C@@H](Oc2ccc(O)cc2)[C@H](O)[C@@H](O)[C@@H]1O` [arbutin, reference compound], the “reduction in melanin content” value in the data set with B16F10 melanoma cells was found to be 54.34%. Take `Oc1ccc(O)cc1` [hydroquinone]: the undesirable side effects result in the data set with skin is “contact dermatitis, irritation of the skin, and exogenous ochronosis”. For the same molecule, the IC50 (usually the concentration that gives 50% inhibition) with mushroom TYR was 680 µM. On to `O=c1cc(CO)occ1O` [kojic acid], for which, in the data set with cells, the toxicity towards cells entry was “high degree of toxicity towards cells”. For the same molecule, the stability entry in data set [1] was “instability in the presence of water or oxygen”. With `O=S(O)O` [sulfite], the toxicity towards cells entry with cells is “high degree of toxicity towards cells”. Further, the stability entry in data set [1] is on record as “instability in the presence of water or oxygen”. For ECGYF, the “TYR inhibition vs arbutin and glutathione” value in the data set with TYR was “exceeded those of arbutin and glutathione”. Further, the IC50 with TYR (read-out: TYR inhibition IC50) is 460 µM. For the same molecule, in the data set on A375 melanoma cells, the “melanin level in A375 cells” value is reported as “able to lower the melanin levels in cultured A375 melanoma cells more effectively than arbutin or glutathione”. Take “GYSLGNWVCAAK [obtained from egg white protein]”: in the data set on TYR, the inhibition type entry is given as “competitively inhibit TYR”. Take “HGGEGGRPY [CT-1, rice bran protein hydrolysate peptide]”: in the data set with TYR (di-phenolase), the “TYR inhibition, di-phenolase L-DOPA substrate reaction” value is recorded as “did not do so in the di-phenolase L-DOPA substrate reaction”. Moreover, in the data set on TYR (mono-phenolase), the “TYR inhibition, mono-phenolase tyrosine substrate reaction” value is “notable TYR inhibition”. With “HPTSEVY [CT-3, rice bran protein hydrolysate peptide]”, the “TYR inhibition, di-phenolase L-DOPA substrate reaction” value with TYR (di-phenolase) is given as “did not do so in the di-phenolase L-DOPA substrate reaction”. In the data set on TYR (mono-phenolase), the “TYR inhibition, mono-phenolase tyrosine substrate reaction” value is “notable TYR inhibition”.

With IIPFIF, the “IC50 against TYR” value in the data set with TYR was 6160 µg/mL. ILFTLL: the “IC50 against TYR” value in the data set on TYR was 9250 µg/mL. IQSPHFF [from Phage Display Library]: the Ki (in general, the equilibrium dissociation constant of an inhibitor or competing ligand from its target) at TYR (di-phenolase) (competitive) was 765 µM. Further, in the data set with TYR (di-phenolase) (di-phenolase), the inhibition type result was “competitive inhibitor”. With “KFEKKFEK [oligopeptide of an internal library]”, the 50% inhibitory concentration (IC50) in the data set on mushroom TYR was 3600 µM.

Turning to “LQPSHY [CT-2, rice bran protein hydrolysate peptide]”, the “TYR inhibition, di-phenolase L-DOPA substrate reaction” value with TYR (di-phenolase) is recorded as “did not do so in the di-phenolase L-DOPA substrate reaction”. In the data set with TYR (mono-phenolase), the “TYR inhibition, mono-phenolase tyrosine substrate reaction” value was “notable TYR inhibition”. Besides, in the data set on melanoma cells, the cytotoxic effects entry is reported as “no cytotoxic effects were recorded” and the melanogenesis inhibition was over 50%. MRSRERSSWY [TH10]: on TYR (mono-phenolase) (read-out: IC50 (tyrosine substrate of TYR)), the IC50 is 102 µM.

Take “RADSRADC [oligopeptide of an internal library]”: in the data set with human TYR, the “human TYR inhibition vs hydroquinone” value is listed as “to a greater extent than was the case with hydroquinone”. Further, in the data set on mushroom TYR, the IC50 is 123 µM. The “reduction in melanin content” value with human melanocytes is listed as 27%. As for “SFLLRN [oligopeptide of an internal library]”, in the data set on mushroom TYR, the IC50 was 8000 µM. With TIPPPT, the “IC50 against TYR” value with TYR was 7590 µg/mL. For the molecule “YRSRKYSSWY [P4, peptide from an earlier study]”, in the data set on human TYR, the “human TYR inhibition vs hydroquinone” value was “to a greater extent than was the case with hydroquinone”. In addition, in the data set with mushroom TYR, the IC50 is 40 µM. Further, the “reduction in melanin content” value in the data set on human melanocytes is given as 43%.
